Assays:
hIL-6 mRNA = experiment: Quantification of hIL-6 mRNA; format: cell-based, human; design: key: Active: an active compound is one that causes a ≥20% inhibition in IL-6 mRNA at a concentration less than or equal to 10 μM; conditions: IL-6 mRNA by real-time PCR; differentiated U937 cells, 1 h pretreatment, lipopolysaccharide stimulation 3 h; concentration ≤10 μM
Procedure, shortened: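 U937 cells, differentiated for 3 days, were pretreated with compound for 1 h and then stimulated with E. coli LPS for 3 h at 37 °C. IL-6 mRNA was quantified by one-step qRT-PCR, with Ct normalized to an internal control, and fold induction was expressed relative to control.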

VCAM-1 mRNA = experiment: Quantification of hVCAM mRNA; format: cell-based, human; design: key: Active: an active compound is one that causes a ≥20% inhibition in VCAM-1 mRNA at a concentration less than or equal to 10 μM; -1 mRNA at a concentration less than or equal to 10 μM; conditions: VCAM-1 mRNA by real-time PCR; HUVECs, 1 h pretreatment, tumor necrosis factor-α stimulation 24 h; concentration ≤10 μM
Procedure, shortened: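 HUVECs were pretreated 1 h with compound, then stimulated with TNF-α and harvested 24 h later. Isolated mRNA went into one-step qRT-PCR. hVCAM Ct values were normalized to an internal control and expressed as fold induction relative to control.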

Compound	Inhibition of IL-6 expression (hIL-6 mRNA)	Inhibition of VCAM-1 expression (VCAM-1 mRNA)	melting point [°C]
COc1cc(OC)cc(-c2nc3ccc(Nc4ccncc4)cc3c(=O)[nH]2)c1 [2-(3,5-Dimethoxyphenyl)-6-(pyridin-4-ylamino)quinazolin-4(3H)-one]	Active	Inactive	289 to 290
COc1cc(OC)c2c(=O)[nH]c(-c3cccc(OCCO)c3)nc2c1 [2-(3-(2-Hydroxyethoxy)phenyl)-5,7-dimethoxyquinazolin-4(3H)-one]	Active	Active	244.8 to 246
COc1cc(OCCOC(C)C)cc2nc(-c3cc(C)nc(C)c3)[nH]c(=O)c12 [2-(2,6-Dimethylpyridin-4-yl)-7-(2-isopropoxyethoxy)-5-methoxyquinazolin-4(3H)-one]	Active	Active	188 to 189
COCCOc1cc(OC)c2c(=O)[nH]c(-c3ccnc(C)c3)nc2c1 [5-methoxy-7-(2-methoxyethoxy)-2-(2-methylpyridin-4-yl)quinazolin-4(3H)-one]	Active	Active	260 to 262
COc1ccc2nc(-c3cc(C)c(OCCN4CCCC4)c(C)c3)[nH]c(=O)c2c1 [2-(3,5-Dimethyl-4-(2-(pyrrolidin-1-yl)ethoxy)phenyl)-6-methoxyquinazolin-4(3H)-one]	Active	Active	201.2 to 203.1
COc1ccc2c(=O)[nH]c(-c3cc(C)c(OCCN4CCCC4)c(C)c3)nc2c1 [2-(3,5-Dimethyl-4-(2-(pyrrolidin-1-yl)ethoxy)phenyl)-7-methoxyquinazolin-4(3H)-one]	Active	Active	218 to 220
COc1cc(OC)c2c(=O)[nH]c(-c3cc(C)c(CCCN4CCCC4)c(C)c3)nc2c1 [2-(3,5-Dimethyl-4-(3-(pyrrolidin-1-yl)propyl)phenyl)-5,7-dimethoxyquinazolin-4(3H)-one]	Active	Active	194 to 196
COc1cc(OC)c2c(=O)[nH]c(-c3ccc(CN4C(=O)CNC4=O)cc3)nc2c1 [3-(4-(5,7-Dimethoxy-4-oxo-3,4-dihydroquinazolin-2-yl)benzyl)imidazolidine-2,4-dione]	Active	Active	317 to 318
COc1cc(OCCOc2ccccc2)cc2nc(-c3cc(C)nc(C)c3)[nH]c(=O)c12 [2-(2,6-Dimethylpyridin-4-yl)-5-methoxy-7-(2-phenoxyethoxy)quinazolin-4(3H)-one]	Active	Active	223 to 224
COc1cc(OCCOc2ccccc2)c2c(=O)[nH]c(-c3cc(C)nc(C)c3)nc2c1 [2-(2,6-Dimethylpyridin-4-yl)-7-methoxy-5-(2-phenoxyethoxy)quinazolin-4(3H)-one]	Active	Active	172.3 to 173.2
COc1cc(OCCOCc2ccccc2)cc2nc(-c3ccncc3)[nH]c(=O)c12 [7-(2-(Benzyloxy)ethoxy)-5-methoxy-2-(pyridin-4-yl)quinazolin-4(3H)-one]	Active	Active	228.2 to 229.9
COc1cc(OC)c2c(=O)[nH]c(-c3cc(C)c(OCCN4CCN(C)CC4)c(C)c3)nc2c1 [2-(3,5-Dimethyl-4-(2-(4-methylpiperazin-1-yl)ethoxy)phenyl)-5,7-dimethoxyquinazolin-4(3H)-one]	Active	Active	180 to 182
COc1cc(OC)c2c(=O)[nH]c(-c3cc(C)c(OCCN4CCCC4)c(C)c3)nc2n1 [2-(3,5-Dimethyl-4-(2-(pyrrolidin-1-yl)ethoxy)phenyl)-5,7-dimethoxypyrido[2,3-d]pyrimidin-4(3H)-one]	Active	Active	228 to 230
Cc1cc(-c2nc3ccc(CCN4CCCC4)cc3c(=O)[nH]2)cc(C)n1 [2-(2,6-Dimethylpyridin-4-yl)-6-(2-(pyrrolidin-1-yl)ethyl)quinazolin-4(3H)-one]	Active	Active	212.3 to 213.2
Cc1cc(-c2nc3ccc(CCN4CCOCC4)cc3c(=O)[nH]2)cc(C)n1 [2-(2,6-Dimethylpyridin-4-yl)-6-(2-morpholinoethyl)quinazolin-4(3H)-one]	Active	Inactive	248.5 to 249.3
COc1cc(OCCN2CCCC2)cc(-c2nc3cc(OC)cc(OC)c3c(=O)[nH]2)c1 [5,7-Dimethoxy-2-(3-methoxy-5-(2-(pyrrolidin-1-yl)ethoxy)phenyl)quinazolin-4(3H)-one]	Active	Active	159 to 160
COc1cccc2c(=O)[nH]c(-c3cc(C)c(OCCN4CCCC4)c(C)c3)nc12 [2-(3,5-Dimethyl-4-(2-(pyrrolidin-1-yl)ethoxy)phenyl)-8-methoxyquinazolin-4(3H)-one]	Active	Active	231 to 232
COc1cc(OCCOCc2ccccc2)cc2nc(-c3cc(C)nc(C)c3)[nH]c(=O)c12 [7-(2-(Benzyloxy)ethoxy)-2-(2,6-dimethylpyridin-4-yl)-5-methoxyquinazolin-4(3H)-one]	Active	Active	178 to 180
Cc1cc(-c2nc3ccc(CN4CCOCC4)cc3c(=O)[nH]2)ccn1 [2-(2-methylpyridin-4-yl)-6-(morpholinomethyl)quinazolin-4(3H)-one]	Active	Inactive	267 to 268
COc1cc(OC)c2c(=O)[nH]c(-c3cc(C)c(OCCCCN4CCCC4)c(C)c3)nc2c1 [2-(3,5-Dimethyl-4-(4-(pyrrolidin-1-yl)butoxy)phenyl)-5,7-dimethoxyquinazolin-4(3H)-one]	Active	Active	180 to 181
COc1cc(OC)c2c(=O)[nH]c(-c3cc(C)cc(OCCO)c3)nc2c1 [2-(3-(2-Hydroxyethoxy)-5-methylphenyl)-5,7-dimethoxyquinazolin-4(3H)-one]	Active	Active	106.9 to 109.1

From patent US11407719B2, “Anti-inflammatory agents” (Resverlogix Corp., priority 2009, dated 2022)
